Test results: patent EP0584797A2, “Novel cephalosporin compounds and processes for the preparation thereof” (LUCKY LTD., priority 1992, dated 1994)
≈ marks a conversion by molar mass, not a printed value.

How the values were obtained:
Experiment in all cases: minimal inhibitory concentration, two-fold agar dilution
Format in all cases: cell-based
[1] = tested on: Acinetobacter calcoaceticus ATCC 15437; conditions: ATCC15437, Muller-Hinton agar, 37°C, 20 hours, read-out: MIC values against the standard strains
Outline: (§1)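 Compounds were serially diluted two-fold into Mueller-Hinton agar, and each plate was spot-inoculated with the test strain at 10⁷ CFU per ml. Plates were incubated at 37°C for 20 hours before MIC values were read.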

[2] = tested on: Bacillus cereus ATCC 11778; conditions: ATCC11778, Muller-Hinton agar, 37°C, 20 hours, read-out: MIC values against the standard strains
Outline: as §1

[3] = tested on: Bacillus megaterium ATCC 9885; conditions: Priestia megaterium, ATCC9885; Muller-Hinton agar; 37°C; 20 hours; read-out: MIC values against the standard strains
Outline: as §1

[4] = tested on: Citrobacter freundii ATCC 8090; conditions: ATCC8090, Muller-Hinton agar, 37°C, 20 hours, read-out: MIC values against the standard strains
Outline: as §1

[5] = tested on: Enterobacter aerogenes ATCC 29751; conditions: Klebsiella aerogenes, ATCC29751; Muller-Hinton agar; 37°C; 20 hours; read-out: MIC values against the standard strains
Outline: as §1

[6] = tested on: Enterobacter cloacae ATCC 27508; conditions: ATCC27508, Muller-Hinton agar, 37°C, 20 hours, read-out: MIC values against the standard strains
Outline: as §1

[7] = tested on: Escherichia coli ATCC 10536; conditions: ATCC10536, Muller-Hinton agar, 37°C, 20 hours, read-out: MIC values against the standard strains
Outline: as §1

[8] = tested on: Escherichia coli ATCC 25922; conditions: ATCC25922, Muller-Hinton agar, 37°C, 20 hours, read-out: MIC values against the standard strains
Outline: as §1

[9] = tested on: Klebsiella pneumoniae ATCC 10031; conditions: ATCC10031, Muller-Hinton agar, 37°C, 20 hours, read-out: MIC values against the standard strains
Outline: as §1

[10] = tested on: Micrococcus luteus ATCC 9341; conditions: ATCC9341, Muller-Hinton agar, 37°C, 20 hours, read-out: MIC values against the standard strains
Outline: as §1

[11] = tested on: Morganella morganii ATCC 8076h; conditions: ATCC8076H, Muller-Hinton agar, 37°C, 20 hours, read-out: MIC values against the standard strains
Outline: as §1

[12] = tested on: Proteus mirabilis ATCC 25933; conditions: ATCC25933, Muller-Hinton agar, 37°C, 20 hours, read-out: MIC values against the standard strains
Outline: as §1

[13] = tested on: Proteus vulgaris ATCC 6059; conditions: ATCC6059, Muller-Hinton agar, 37°C, 20 hours, read-out: MIC values against the standard strains
Outline: as §1

[14] = tested on: Providencia rettgeri ATCC 9250; conditions: ATCC9250, Muller-Hinton agar, 37°C, 20 hours, read-out: MIC values against the standard strains
Outline: as §1

[15] = tested on: Pseudomonas aeruginosa ATCC 10145; conditions: ATCC10145, Muller-Hinton agar, 37°C, 20 hours, read-out: MIC values against the standard strains
Outline: as §1

[16] = tested on: Pseudomonas aeruginosa ATCC 25619; conditions: ATCC25619, Muller-Hinton agar, 37°C, 20 hours, read-out: MIC values against the standard strains
Outline: as §1

[17] = tested on: Pseudomonas aeruginosa ATCC 27853; conditions: ATCC27853, Muller-Hinton agar, 37°C, 20 hours, read-out: MIC values against the standard strains
Outline: as §1

[18] = tested on: Salmonella typhimurium ATCC 14028; conditions: Salmonella enterica; Muller-Hinton agar; 37°C; 20 hours; read-out: MIC values against the standard strains
Outline: as §1

[19] = tested on: Serratia marcescens ATCC 27117; conditions: ATCC27117, Muller-Hinton agar, 37°C, 20 hours, read-out: MIC values against the standard strains
Outline: as §1

[20] = tested on: Shigella flexneri ATCC 11836; conditions: ATCC11836, Muller-Hinton agar, 37°C, 20 hours, read-out: MIC values against the standard strains
Outline: as §1

[21] = tested on: Shigella sonnei ATCC 11060; conditions: ATCC11060, Muller-Hinton agar, 37°C, 20 hours, read-out: MIC values against the standard strains
Outline: as §1

[22] = tested on: Staphylococcus aureus ATCC 10537; conditions: ATCC10537, Muller-Hinton agar, 37°C, 20 hours, read-out: MIC values against the standard strains
Outline: as §1

[23] = tested on: Staphylococcus aureus ATCC 6538p; conditions: ATCC6538P, Muller-Hinton agar, 37°C, 20 hours, read-out: MIC values against the standard strains
Outline: as §1

[24] = tested on: Staphylococcus epidermidis ATCC 12228; conditions: ATCC12228, Muller-Hinton agar, 37°C, 20 hours, read-out: MIC values against the standard strains
Outline: as §1

[25] = tested on: Streptococcus faecalis ATCC 29212; conditions: Enterococcus faecalis, ATCC29212; Muller-Hinton agar; 37°C; 20 hours; read-out: MIC values against the standard strains
Outline: as §1

[26] = tested on: Acinetobacter calcoaceticus ATCC 15473; conditions: ATCC15473, Muller-Hinton agar, 37°C, 20 hours, read-out: MIC values against the standard strains
Outline: as §1

Compound | MIC [2] | MIC [3] | MIC [4] | MIC [5] | MIC [6] | MIC [7] | MIC [8] | MIC [9] | MIC [10] | MIC [11] | MIC [12] | MIC [13] | MIC [14] | MIC [15] | MIC [16] | MIC [17] | MIC [18] | MIC [19] | MIC [20] | MIC [21] | further results
CCO/N=C(\C(=O)N[C@@H]1C(=O)N2C(C(=O)[O-])=C(CSc3nc(N)cc(OC)[n+]3C)CS[C@H]12)c1csc(N)n1 [Example 18, 7-[(Z)-2-(2-aminothiazol-4-yl)-2-(ethoxyimino)acetamido]-3-(4-amino-6-methoxy-1-methylpyrimidinium-2-yl)thiomethyl-3-cephem-4-carboxylate] | 32 µg/mL (≈ 55.1 µM) | 0.13 µg/mL (≈ 0.224 µM) | 0.13 µg/mL (≈ 0.224 µM) | 1 µg/mL (≈ 1.72 µM) | ≤ 0.008 µg/mL | 0.13 µg/mL (≈ 0.224 µM) | 0.25 µg/mL (≈ 0.431 µM) | ≤ 0.008 µg/mL | 0.016 µg/mL (≈ 0.0276 µM) | ≤ 0.008 µg/mL | 0.5 µg/mL (≈ 0.861 µM) | 0.5 µg/mL (≈ 0.861 µM) | ≤ 0.008 µg/mL | 16 µg/mL (≈ 27.6 µM) | 2 µg/mL (≈ 3.44 µM) | 16 µg/mL (≈ 27.6 µM) | 0.5 µg/mL (≈ 0.861 µM) | 0.5 µg/mL (≈ 0.861 µM) | 0.13 µg/mL (≈ 0.224 µM) | 0.25 µg/mL (≈ 0.431 µM) | MIC [1]: 8 µg/mL (≈ 13.8 µM); MIC [22]: 0.25 µg/mL (≈ 0.431 µM); MIC [23]: 0.5 µg/mL (≈ 0.861 µM); MIC [24]: 0.13 µg/mL (≈ 0.224 µM); MIC [25]: 16 µg/mL (≈ 27.6 µM)
CCO/N=C(\C(=O)N[C@@H]1C(=O)N2C(C(=O)[O-])=C(CSc3nc(N)c(N)c(N)[n+]3CC)CS[C@H]12)c1csc(N)n1 [Example 13, 7-[(Z)-2-(2-aminothiazol-4-yl)-2-(ethoxyimino)acetamido]-3-(4,5,6-triamino-1-ethylpyrimidinium-2-yl)thiomethyl-3-cephem-4-carboxylate] | 64 µg/mL (≈ 108 µM) | 0.13 µg/mL (≈ 0.219 µM) | 0.5 µg/mL (≈ 0.841 µM) | 2 µg/mL (≈ 3.36 µM) | 0.016 µg/mL (≈ 0.0269 µM) | 0.063 µg/mL (≈ 0.106 µM) | 0.063 µg/mL (≈ 0.106 µM) | 0.13 µg/mL (≈ 0.219 µM) | 0.13 µg/mL (≈ 0.219 µM) | 0.13 µg/mL (≈ 0.219 µM) | 2 µg/mL (≈ 3.36 µM) | 2 µg/mL (≈ 3.36 µM) | 0.13 µg/mL (≈ 0.219 µM) | 64 µg/mL (≈ 108 µM) | 8 µg/mL (≈ 13.5 µM) | 32 µg/mL (≈ 53.8 µM) | 1 µg/mL (≈ 1.68 µM) | 1 µg/mL (≈ 1.68 µM) | 0.5 µg/mL (≈ 0.841 µM) | 0.5 µg/mL (≈ 0.841 µM) | MIC [1]: 16 µg/mL (≈ 26.9 µM); MIC [22]: 0.25 µg/mL (≈ 0.42 µM); MIC [23]: 0.5 µg/mL (≈ 0.841 µM); MIC [24]: 0.13 µg/mL (≈ 0.219 µM); MIC [25]: > 128 µg/mL
C[n+]1c(SCC2=C(C(=O)[O-])N3C(=O)[C@@H](NC(=O)/C(=N\OC(C)(C)C(=O)O)c4csc(N)n4)[C@H]3SC2)nc(N)c2ccoc21 [Example 32, 7-[(Z)-2-(2-aminothiazol-4-yl)-2-(carboxyprop-2-oxyimino)acetamido]-3-(4-amino-1-methylfuro[5,6,e]pyrimidinium-2-yl-)thiomethyl-3-cephem-4-carboxylate] | 128 µg/mL (≈ 197 µM) | 0.13 µg/mL (≈ 0.2 µM) | 0.13 µg/mL (≈ 0.2 µM) | 2 µg/mL (≈ 3.08 µM) | 0.016 µg/mL (≈ 0.0247 µM) | 0.063 µg/mL (≈ 0.0971 µM) | 0.063 µg/mL (≈ 0.0971 µM) | 0.016 µg/mL (≈ 0.0247 µM) | 0.25 µg/mL (≈ 0.385 µM) | ≤ 0.008 µg/mL | 0.13 µg/mL (≈ 0.2 µM) | 0.13 µg/mL (≈ 0.2 µM) | ≤ 0.008 µg/mL | 4 µg/mL (≈ 6.17 µM) | 1 µg/mL (≈ 1.54 µM) | 2 µg/mL (≈ 3.08 µM) | 0.25 µg/mL (≈ 0.385 µM) | 0.25 µg/mL (≈ 0.385 µM) | 0.031 µg/mL (≈ 0.0478 µM) | 0.13 µg/mL (≈ 0.2 µM) | MIC [26]: 8 µg/mL (≈ 12.3 µM); MIC [22]: 2 µg/mL (≈ 3.08 µM); MIC [23]: 4 µg/mL (≈ 6.17 µM); MIC [24]: 2 µg/mL (≈ 3.08 µM); MIC [25]: > 128 µg/mL
